Experimental data reported in publication PMC8264055, “Pharmacokinetics of Colistin in the Gastrointestinal Tract of Poultry Following Dosing via Drinking Water and Its Bactericidal Impact on Enteric Escherichia coli” (Frontiers in Veterinary Science, 2021).
Where a name gives a salt, the structure may show the parent alone. Positions of bridges follow the written chain, without caps; N, C: chain ends. Non-standard residues stand in square brackets, D forms with d. Residues, ends and D or L forms follow the SMILES beside them. *: point of attachment. X1 = CC[C@H](C)CCCCC(=O)*; Dab = NCC[C@H](N)C(=O)O

How the values were obtained:
[1] = Colistin content in luminal intestinal content (LIC) by UHPLC-MS/MS, non-compartmental PK analysis; format: in vivo, broiler chicken (Gallus gallus domesticus)
Excerpt: (§1) This study was approved by the Royal Veterinary College ethics and welfare committee. One hundred Ross 308 broiler chicken (Gallus gallus domesticus) were obtained from an approved supplier and housed in the animal welfare barn (AWB) at the Royal Veterinary College. Poultry were group-housed and fed baby chick crumbs (Smallholder Range, Norfolk, UK), a feed free of coccidiostats and designed to feed from hatching to 6–8 weeks, and given free access to water for the duration of the study. At 13 days, six birds were separated and maintained as a control group for the course of the study with the remaining 94 birds constituting the study group. European Pharmacopeia-compliant Meiji Seika Pharma's colistin sulfate (ColiMeiji®, hereafter “colistin”) consisting of a 78.53% (“as is”) mixture of colistin A (polymyxin E1) and colistin B (polymyxin E2), was per certificate of analysis (CoA) supplied by Wyjolab (Chaillac, France). Potency of colistin (as reported by CoA) was 23,558 IU/mg, and dosing was calculated as equivalent colistin base. Colistin was administered via drinking water to the study group at a dose equal to 75,000 IU/kg/day over a period of 3 days. The volume of colistin stock solution (2,000,000 IU/ml) diluted per 3-L drinking bell (Poultry Drinker 3L, Farm & Country Supplies, Alton, Hampshire, UK) was based on the average bird weight and water consumption measured on the day prior to dosing. Actual dose received every 24 h was back calculated based on measured water consumption for that period and bird weights. Birds were housed in a 25-m^2 floor pen with access to 5 × 3-L drinking bells, refreshed every 24 h. Average relative humidity was 44.5% (range: 29–63%) and average temperature 24°C (range: 20–28°C). Birds were provided a 14-h photoperiod aligned with onset of dosing (0 h) at 07:00.
(§2) The study group was sampled at predetermined times pre-dose (0 h), during oral dosing (at 12, 36, and 54 h), at cessation of dosing (72 h), and after dosing (73, 74, 76, 80, 84, 96, 120, and 144 h from the onset of dosing). At each time point, eight birds were sacrificed, except at 12, 36, and 54 h where only six birds were sacrificed. After neck dislocation, cloacal swabs were immediately taken, and the whole small intestine was excised after placing three ligatures (one around the duodenum, one on the ileum just proximally to the cecal attachment, and one distally to include the large intestine). All samples were stored at 4°C for no more than 48 h prior to further analysis. All birds in the control group underwent cloacal sampling at matching time points.
Each intestinal specimen was individually processed with a new set of examination gloves and blades to avoid carry over or contamination. The ceca were separated from the small intestine by cutting off the ileum proximally to the ligature. The luminal intestinal content (LIC) was then evacuated through peristaltic massage of the small intestine in a proximal-to-distal direction. Extracted LIC was mixed to ensure a homogenous sample, and 200 mg (±2 mg) aliquots were separated for further testing. Parietal intestinal content (PIC) was collected following LIC; the intestine was inflated with air, straightened, and longitudinally incised with a scalpel blade no. 11. The opened intestine was flattened, and the blade was used to scrape the parietal lining of the intestine. Luminal cecal content (LCC) was extracted in a similar fashion following incision at one end. Aliquots for colistin quantification were stored at −80°C or at 4°C for bacterial enumeration and isolation.
Total colistin content was quantified using a novel ultra-high-performance liquid chromatography-tandem mass spectrometry (UHPLC-MS/MS) method. […]

enteric E. coli = assay: Enumeration of E. coli in luminal intestinal content on UriSelect 4 agar during and after colistin treatment; format: in vivo, Escherichia coli
Excerpt: as §1
as §2, with “All birds in the control group underwent cloacal sampling at matching time points.” left out
UriSelect 4™ agar (Bio-Rad, Watford, UK) plates were used for enumeration and isolation of E. coli from LIC. […] Bacterial counts in original LIC were back calculated based on the total number of colonies countable on UriSelect 4™ agar. […]

[2] = LIC, nominal dose 75,000 IU/kg/day, NCA sparse option, 6 to 8 birds per time point
[3] = nominal dose 75,000 IU/kg/day via drinking water, from partial AUC, NCA sparse option
[4] = during dosing, 75,000 IU/kg/day via drinking water, n = 6, median baseline 3.6 × 10^6 CFU/g

In the case of `CC[C@H](C)CCCCC(=O)N[C@@H](CCN)C(=O)N[C@H](C(=O)N[C@@H](CCN)C(=O)N[C@H]1CCNC(=O)[C@H]([C@@H](C)O)NC(=O)[C@H](CCN)NC(=O)[C@H](CCN)NC(=O)[C@H](CC(C)C)NC(=O)[C@@H](CC(C)C)NC(=O)[C@H](CCN)NC1=O)[C@@H](C)O` [colistin, colistin sulfate] (X1-[Dab]T[Dab][Dab][Dab][dL]L[Dab][Dab]T; lactam 4-C), the “Partial AUC, AUC0-24h (first day)” value [1, 2] is reported as 54.1 mg·h/kg, the “Partial AUC, AUC24-48h (second day)” value [1, 2] is reported as 75.5 mg·h/kg and the “Partial AUC, AUC48-72h (third day)” value [1, 2] is reported as 112.6 mg·h/kg. The tissue level at time at 72 h ([1]; Ross 308 broiler, luminal intestinal content (LIC), po, 75000 IU/kg/day, 75,000 IU/kg/day via drinking water for 72 h, 72 h, mean of n = 8 birds, read-out: mean colistin content in LIC at cessation of dosing) was 4510 ng/g, the “mean colistin content in LIC, peak” value ([1]; broiler chickens, colistin sulfate 75,000 IU/kg/day via drinking water for 72 h, 54 h from onset of dosing, mean of n = 6 birds, UHPLC-MS/MS, LOQ 1.1 mg/kg) was 5.09 mg/kg and the “Average colistin luminal intestinal content, 0-48 h (first and second day)” value [1, 3] was 2.70 mg/kg digesta. For the same compound, the “Average colistin luminal intestinal content, 24-48 h (second day)” value [1, 3] was 3.15 mg/kg digesta, the “median E. coli count in LIC at 96, 120 and 144 h” value (enteric E. coli; after dosing, to end of the experiment, n = 8 per time point) was ~5 × 10^5 and the “median E. coli count in LIC at 36 h” value (enteric E. coli; [4]) was 3.9 × 10^3 CFU/g. The “median E. coli count in LIC at 54 h” value (enteric E. coli; [4]) was 1.56 × 10^4 CFU/g and the “log reduction in the number of E. coli” value (enteric E. coli; up to 36 h post-onset of colistin administration) was > 3 log.
